Data from publication PMC6536313 (Bioorganic & medicinal chemistry, 2019).
Each block holds one molecule with its values, some of them ahead of it.

Experiments:
σ2 receptor (σ2R) = σ2 receptor (σ2R) (Homo sapiens, UniProt Q5BJF2); assay: Sigma-2 receptor radioligand binding; settings: for σ2R pKi ± SEM: Mean ± SEM
σ1 receptor (σ1R) = σ1 receptor (σ1R) (Homo sapiens, UniProt Q99720); assay: Sigma-1 receptor radioligand binding
[1] = on removal of both chloro and fluoro substituents (ether analogs 13-15)

σ1 receptor (σ1R), sequence (Q99720 whole entry, species assumed): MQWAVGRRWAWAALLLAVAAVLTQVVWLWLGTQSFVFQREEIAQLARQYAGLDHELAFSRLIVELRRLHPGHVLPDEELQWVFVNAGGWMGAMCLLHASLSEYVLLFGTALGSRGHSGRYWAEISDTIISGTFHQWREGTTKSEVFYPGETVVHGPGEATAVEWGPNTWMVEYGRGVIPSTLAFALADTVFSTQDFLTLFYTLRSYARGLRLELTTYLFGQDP
σ2 receptor (σ2R), sequence (Q5BJF2 whole entry, species assumed): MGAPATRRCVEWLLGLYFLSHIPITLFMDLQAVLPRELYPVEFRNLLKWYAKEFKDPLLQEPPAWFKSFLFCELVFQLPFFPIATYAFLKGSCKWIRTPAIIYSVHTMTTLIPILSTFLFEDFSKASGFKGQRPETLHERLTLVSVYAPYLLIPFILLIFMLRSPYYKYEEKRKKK

Compound: O=C(CCCN1CCCN(c2ccccn2)CC1)c1ccc(F)cc1 [Compound 3, 1-(4-fluorophenyl)-4-(4-(pyridin-2-yl)-1,4-diazepan-1-yl)butan-1-one]
σ2R pKi ± SEM (σ2 receptor (σ2R)): 7.49 ± 0.09

Compound: Fc1ccc(CCCCN2CCCN(c3ccc(Cl)cc3)CC2)cc1 [Compound 5]
σ2R pKi ± SEM (σ2 receptor (σ2R)): 8.07 ± 0.06

Compound: OC1(c2ccc(Cl)cc2)CC2CCC(C1)N2CCCCc1ccc(F)cc1 (centres unmarked) [Compound 17]
fold lower affinity for σ1 receptor (σ1 receptor (σ1R); relative to compound 5): 6 fold
fold lower affinity for σ2 receptor (σ2 receptor (σ2R); relative to compound 5): 3 fold

Results, then the molecule that gave them:

σ2R pKi ± SEM (σ2 receptor (σ2R)): 8.65 ± 0.05
Compound: Fc1ccc(SCCCN2CCCN(c3ccc(Cl)cn3)CC2)cc1 [Compound 7, 1-(5-chloropyridin-2-yl)-4-(3-((4-fluorophenyl)thio)propyl)-1,4-diazepane]

σ2R pKi ± SEM (σ2 receptor (σ2R)): 7.37 ± 0.05
Compound: Fc1ccc(CCCCN2CCN(c3ccc(Cl)cn3)CC2)cc1 [Compound 10, 1-(5-chloropyridin-2-yl)-4-(4-(4-fluorophenyl)butyl)piperazine]

fold reduction/loss of binding affinity at σ1 receptor (σ1 receptor (σ1R); relative to compound 8): greater than 45 fold
fold reduction/loss of binding affinity at σ2 receptor (σ2 receptor (σ2R); relative to compound 8): > 71 fold
Compound: [O-][S+](CCCN1CCN(c2ccc(Cl)cc2)CC1)c1ccc(F)cc1 (centres unmarked) [Compound 12]

σ2R pKi ± SEM (σ2 receptor (σ2R)): 7.48 ± 0.09
Compound: Clc1ccc(N2CCN(CCCOc3ccccc3)CC2)cc1 [Compound 13]

fold decrease in binding affinity at σ1 receptor (σ1 receptor (σ1R); [1]): 2–5 fold
fold decrease in binding affinity at σ2 receptor (σ2 receptor (σ2R); [1]): 2–5 fold
Compound: c1ccc(OCCCN2CCN(c3ccccc3)CC2)cc1 [Compound 15]
